Here are results for one compound from PMC6620029 (Combinatorial chemistry & high throughput screening, 2009).

This experiment concerns the target human serum albumin (HSA) (Homo sapiens, UniProt P02768). As to the kind of experiment: 1D 1H NMR line broadening with HSA. The experiment is classed as binding.

Chain of human serum albumin (HSA) (P02768 25-609): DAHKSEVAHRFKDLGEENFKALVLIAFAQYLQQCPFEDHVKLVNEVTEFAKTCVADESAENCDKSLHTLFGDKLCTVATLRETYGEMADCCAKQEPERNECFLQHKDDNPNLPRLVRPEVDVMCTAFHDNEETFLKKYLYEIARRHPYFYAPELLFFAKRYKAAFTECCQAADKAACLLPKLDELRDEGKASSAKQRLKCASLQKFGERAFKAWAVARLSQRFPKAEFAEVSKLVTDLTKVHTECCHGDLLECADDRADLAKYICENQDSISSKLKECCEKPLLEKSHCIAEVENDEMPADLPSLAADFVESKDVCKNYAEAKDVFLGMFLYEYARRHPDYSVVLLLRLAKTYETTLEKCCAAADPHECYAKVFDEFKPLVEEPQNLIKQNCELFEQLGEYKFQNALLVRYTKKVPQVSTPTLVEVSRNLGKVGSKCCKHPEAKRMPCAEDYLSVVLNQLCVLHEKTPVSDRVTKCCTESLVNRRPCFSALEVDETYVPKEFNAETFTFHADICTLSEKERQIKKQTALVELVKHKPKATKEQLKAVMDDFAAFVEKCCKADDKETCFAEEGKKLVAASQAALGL

Take `Cc1cc(=O)oc2cc(O)ccc12` [7-hydroxy-4-methyl coumarin]: the “1D 1H NMR line broadening with HSA; competition with warfarin” value is reported as “The NMR resonances of the coumarin-analogue broaden (Fig (6a, b)) from the addition of HSA”.
